The test system of one test is Raptor-Ser792. The test is described as follows: Raptor-Ser792 phosphorylation in LT-CML cancer stem cells. The following applies: LT-CML cancer stem cells in vitro. The class given is cell-based, mouse.
The subject of another test is Raptor-Ser863. The test is described as follows: Duolink in situ PLA, Raptor-Ser863 phosphorylation in LT-CML cancer stem cells. The test is classed as cell-based, mouse. The following applies: 30 min; GlySar or cefadroxil 5 μM; rapamycin 100 nM. The protocol:
(§1) To examine phosphorylation of Smad2, Smad3, p38MAPK, AMPK, and S6 ribosomal protein, and Foxo3a-Smad2 and Foxo3a-Smad3 interactions, Duolink® in situ PLA assay (Olink Bioscience) was used. LT-CML stem cells, ST-CML stem cells, CD48^+, MPP, and KLS^− CML cells that were freshly isolated from CML-affected mice, and LT-normal HSCs that were freshly isolated from healthy control littermates, were immediately fixed with 4% paraformaldehyde for 30 min.
(§2) For in vitro inhibitor experiments, LT-CML stem cells were incubated in 3% O2 at 37° C. for 30 min with vehicle (control; artificial gastric fluid solution (900 ml ddH2O containing 2.0 g of NaCl, 7 ml of conc. HCl and 3.2 g of pepsin)), 5 μM Ly364947 (TGF-β type I receptor kinase Alk5 inhibitor; Merck), 5 μM SB203580 (p38MAPK inhibitor; LC Laboratories), 5 μM GlySar (dipeptide transporter inhibitor; Sigma-Aldrich), 5 μM cefadroxil (dipeptide transporter inhibitor; Sigma-Aldrich), or 100 nM rapamycin (mTORC1 inhibitor; Cell Signaling Technologies). […]
(§3) The proximate binding of these antibodies was then detected using Duolink® in situ PLA system which employs a set of two secondary antibodies in which one is conjugated to a minus strand PLA probe and the other is conjugated to a plus strand PLA probe. […] The number of fluorescent foci per single cell was quantified using Duolink®Image Tool software (Olink Bioscience).

For the next test, the system named is Smad3 Ser208. The test is described as follows: Duolink in situ PLA, Smad3 Ser208 phosphorylation in LT-CML cancer stem cells. The class given is cell-based, mouse. How it is done:
as §1
(§4) For in vitro inhibitor experiments, LT-CML stem cells were incubated in 3% O2 at 37° C. for 30 min with vehicle (control; artificial gastric fluid solution (900 ml ddH2O containing 2.0 g of NaCl, 7 ml of conc. HCl and 3.2 g of pepsin)), 5 μM Ly364947 (TGF-β type I receptor kinase Alk5 inhibitor; Merck), 5 μM SB203580 (p38MAPK inhibitor; LC Laboratories), 5 μM GlySar (dipeptide transporter inhibitor; Sigma-Aldrich), 5 μM cefadroxil (dipeptide transporter inhibitor; Sigma-Aldrich), or 100 nM rapamycin (mTORC1 inhibitor; Cell Signaling Technologies). Treated cells were fixed with 4% paraformaldehyde for 30 min, and treated with 0.25% Triton X-100 for 15 min, washed and blocked by incubation in 5% FBS in TBS for 1 hr.
(§5) The proximate binding of these antibodies was then detected using Duolink® in situ PLA system which employs a set of two secondary antibodies in which one is conjugated to a minus strand PLA probe and the other is conjugated to a plus strand PLA probe. Nuclei were stained with DNA marker DAPI (Sigma). Stained slides were mounted using Fluoromount Plus (Diagnostic Biosystems) and fluorescent images were acquired by confocal microscopy (FV10i, Olympus) and Photoshop software (Adobe). The number of fluorescent foci per single cell was quantified using Duolink®Image Tool software (Olink Bioscience).

The subject of another test is AMPK. The test is described as follows: Duolink in situ PLA, AMPK phosphorylation in LT-CML cancer stem cells. The test is classed as cell-based, mouse. Particulars: LT-CML cancer stem cells in vitro. How it is done:
as §1, §4, §5

In a further test the test system is S6 ribosomal protein. The test is described as follows: Duolink in situ PLA, S6 ribosomal protein phosphorylation in LT-CML cancer stem cells. The class given is cell-based, mouse. The following applies: 30 min; GlySar or cefadroxil 5 μM; rapamycin 100 nM. How it is done: as §1, §2, §3
The test system of a further test is SLC15A2 mRNA. The following applies: nine CML patients, 1 month after IM therapy; public database; cited from earlier work.
The test system of test [1] is CML-KLS+ cells. The test is described as follows: Metabolomic analysis of dipeptides in KLS+ cells from treated CML-affected mice. The following applies: IM 100 mg/kg/day for 30 days (1 month). The test is classed as in vivo, mouse. The protocol:
(§6) To detect inhibition of dipeptide uptake in vivo, immature KLS^+ cells were isolated from tet-inducible CML-affected (Tal1-tTA^+TRE-BCR-ABL1^+) mice (n=4 mice in each of the three independent experiments), and normal healthy littermate (Tal1-tTA^+) mice (n=6 mice in each of the two independent experiments) that had received vehicle or cefadroxil (36 mgKg^−1day^−1) by oral gavage for 30 days. […] In all cases, isolated cell pellets were frozen at −80° C. immediately after obtaining. Metabolomic profiling was performed by Metabolon Inc. (Durham, N.C.) using ultrahigh-performance liquid chromatography/mass spectroscopy (UPLC/MS/MS) and gas chromatography/MS (GC/MS). Data were compiled using the Metabolon LIMS (Laboratory Information Management System). The UPLC/MS/MS portion of the platform was based on a Waters Acquity UPLC (Waters) and a Q-Exactive high-resolution/accurate mass spectrometer (Thermo Scientific) interfaced with a heated electrospray ionization (HESI-II) source and Orbitrap mass analyzer. GC/MS was performed by a Trace DSQ fast-scanning single-quadrupole mass spectrometer using electron impact ionization (Thermo-Finnigan).

Test [2] deals with CML-KLS+ cells. The test is described as follows: Metabolomic analysis of CML-KLS+ cells treated in vitro with protein degradation inhibitors. Particulars: 100 nM, 2 hrs in vitro, hypoxic (3% O2). The test is classed as cell-based, mouse. The protocol: as §6

SMILES strings stand for the structures. Structures can show the parent of a compound that is named as a salt. Where a SMILES comes first, the peptide text is derived from it. [ ]: non-standard residue; d: D form. Sar = CNCC(=O)O

As to `CN(CC(=O)O)C(=O)CN` [GlySar, glycylsarcosine] (H-Gly-[Sar]-OH), the Raptor-Ser792 phosphorylation result with Raptor-Ser792 was “did not promote”. Besides, the “phosphorylation of Raptor-Ser863” value in the test on Raptor-Ser863 is given as “decreased phosphorylation”. Further, the “Smad3 Ser208 phosphorylation” value in the test with Smad3 Ser208 (30 min, GlySar or cefadroxil 5 μM, rapamycin 100 nM) was “blocked”. Besides, in the test on AMPK, the “phosphorylation of AMPK” value is on record as “increased”. Further, the “phosphorylation of S6” value in the test with S6 ribosomal protein is given as “decreased phosphorylation”.
In the case of `Cc1ccc(NC(=O)c2ccc(CN3CCN(C)CC3)cc2)cc1Nc1nccc(-c2cccnc2)n1` [IM, imatinib mesylate], the “SLC15A2 mRNA levels in CML patients” value in the test on SLC15A2 mRNA is given as “decreased to a level comparable to that in healthy individuals”. For the same molecule, the “dipeptide levels in CML-KLS+ cells” value in the test on CML-KLS+ cells [1] was “tended to decrease”. Further, the “levels of phospho-Smad3-Ser208” value with Smad3 Ser208 (IM treatment of murine LT-CML stem cells in vitro) is on record as “reduced”.
Consider `CO/C1=C\C(C)=C\[C@@H](C)[C@@H](O)[C@@H](C)C/C(C)=C/C=C/[C@H](OC)[C@@H]([C@@H](C)[C@@H](O)[C@H](C)[C@@]2(O)C[C@@H](O)[C@H](C)[C@@H](C(C)C)O2)OC1=O` [Bafilomycin A1], for which, in the test with CML-KLS+ cells [2], the dipeptide accumulation entry is on record as “increased significantly” and the individual amino-acid levels entry is on record as “decreased”.
Regarding `CN(C)C(=N)N=C(N)N` [Metformin], the Raptor-Ser792 phosphorylation result in the test on Raptor-Ser792 is “increases”. The “phosphorylation of AMPK” value in the test on AMPK was “increases”.
`CC(C)C[C@H](NC(=O)[C@H](Cc1ccccc1)NC(=O)c1cnccn1)B(O)O` [Bortezomib]: in the test with CML-KLS+ cells [2], the dipeptide accumulation result is reported as “increased significantly” and the individual amino-acid levels result was “decreased”.
